One experiment has as its target T1, Thromboxane-A synthase (Homo sapiens, UniProt P24557).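 Further: enzyme inhibition assay with PGH2 supplied as substrate.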
T1 sequence (P24557 whole entry): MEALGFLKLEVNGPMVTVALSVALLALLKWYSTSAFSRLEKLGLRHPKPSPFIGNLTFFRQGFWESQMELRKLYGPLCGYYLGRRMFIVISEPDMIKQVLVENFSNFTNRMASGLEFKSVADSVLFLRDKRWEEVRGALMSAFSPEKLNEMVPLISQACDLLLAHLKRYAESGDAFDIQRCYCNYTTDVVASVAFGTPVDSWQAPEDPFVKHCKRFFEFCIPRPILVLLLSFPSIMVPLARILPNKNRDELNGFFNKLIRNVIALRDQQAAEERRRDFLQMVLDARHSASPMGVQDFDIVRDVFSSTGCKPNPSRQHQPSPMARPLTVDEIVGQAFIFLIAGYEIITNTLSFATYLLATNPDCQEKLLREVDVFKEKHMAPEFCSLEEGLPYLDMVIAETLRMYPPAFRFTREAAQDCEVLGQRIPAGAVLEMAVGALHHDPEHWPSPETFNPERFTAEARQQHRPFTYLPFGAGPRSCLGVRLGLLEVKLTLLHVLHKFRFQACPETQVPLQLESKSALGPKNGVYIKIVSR
The experiment in a line: biochemical. It is filed as tissue-based, Platelet.

Experiment [1] concerns the target Prostaglandin G/H synthase 1 (Homo sapiens, UniProt P23219). The experiment in a line: biochemical. It is filed as tissue-based, Platelet.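 Further: inhibition of COX-1 enzyme activity, with arachidonic acid supplied as substrate.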
The target of another experiment is Glycine receptor (Rattus norvegicus, UniProt P22771+P24524+P07727+P20781). It is filed as cell membranes, Wistar, Spinal cord, Membrane.
Experiment [2] deals with T2, Neuropeptide Y receptor type 2 (Homo sapiens, UniProt P49146).
T2 sequence (P49146 whole entry): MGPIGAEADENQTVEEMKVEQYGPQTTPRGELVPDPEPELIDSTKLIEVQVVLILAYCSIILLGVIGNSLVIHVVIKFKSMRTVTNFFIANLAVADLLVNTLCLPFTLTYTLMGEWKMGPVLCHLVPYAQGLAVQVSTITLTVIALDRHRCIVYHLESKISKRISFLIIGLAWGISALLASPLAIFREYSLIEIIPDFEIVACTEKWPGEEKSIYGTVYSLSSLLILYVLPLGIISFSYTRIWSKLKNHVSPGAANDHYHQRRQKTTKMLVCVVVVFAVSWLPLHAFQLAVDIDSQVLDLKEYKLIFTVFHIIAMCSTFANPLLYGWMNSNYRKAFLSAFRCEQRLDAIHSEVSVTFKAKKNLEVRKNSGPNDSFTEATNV
It is filed as cell membranes, KAN-TS, Membrane. Particulars: kan-ts.

The next experiment has as its target T3, Cathepsin G (Homo sapiens, UniProt P08311).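 Further: inhibition of Cathepsin G enzyme activity, tested on an AMC-conjugated peptide substrate.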
T3 sequence (P08311 whole entry): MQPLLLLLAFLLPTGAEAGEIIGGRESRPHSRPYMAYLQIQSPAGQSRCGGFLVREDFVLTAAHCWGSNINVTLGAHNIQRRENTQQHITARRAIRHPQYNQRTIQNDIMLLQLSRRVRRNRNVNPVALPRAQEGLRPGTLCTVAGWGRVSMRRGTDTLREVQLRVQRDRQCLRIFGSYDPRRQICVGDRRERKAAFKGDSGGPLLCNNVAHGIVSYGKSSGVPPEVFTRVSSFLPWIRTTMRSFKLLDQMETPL
It is filed as tissue-based. As to conditions: neutrophil.

The target of experiment [3] is Protein phosphatase 3 catalytic subunit alpha (Homo sapiens, UniProt Q08209). The arrangement: species or system Escherichia coli.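 Further: inhibition of calcineurin (PP2B) enzyme activity, measured with DiFMUP as the substrate.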
Experiment [4] has as its target 5-hydroxytryptamine receptor 1B (Rattus norvegicus, UniProt P28564). It is filed as cell membranes, Wistar, Cerebral cortex, Membrane.

The results in this text go back to ChEMBL document CHEMBL1909046, “DrugMatrix in vitro pharmacology data”.
Further: in other assays of this panel Not Active means under 50% inhibition at 10 µM.

Sequence of 5-hydroxytryptamine receptor 1B (P28564 whole entry): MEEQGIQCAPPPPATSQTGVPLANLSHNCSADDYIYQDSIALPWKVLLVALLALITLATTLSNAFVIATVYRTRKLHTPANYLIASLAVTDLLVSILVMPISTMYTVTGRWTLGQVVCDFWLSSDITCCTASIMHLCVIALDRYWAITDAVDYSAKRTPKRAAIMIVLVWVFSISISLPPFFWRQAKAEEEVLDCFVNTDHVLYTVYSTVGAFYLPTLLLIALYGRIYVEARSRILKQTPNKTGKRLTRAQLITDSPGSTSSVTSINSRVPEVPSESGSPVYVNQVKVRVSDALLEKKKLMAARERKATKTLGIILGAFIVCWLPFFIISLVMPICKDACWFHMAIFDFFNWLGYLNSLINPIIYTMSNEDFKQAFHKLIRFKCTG
Sequence of Prostaglandin G/H synthase 1 (P23219 whole entry): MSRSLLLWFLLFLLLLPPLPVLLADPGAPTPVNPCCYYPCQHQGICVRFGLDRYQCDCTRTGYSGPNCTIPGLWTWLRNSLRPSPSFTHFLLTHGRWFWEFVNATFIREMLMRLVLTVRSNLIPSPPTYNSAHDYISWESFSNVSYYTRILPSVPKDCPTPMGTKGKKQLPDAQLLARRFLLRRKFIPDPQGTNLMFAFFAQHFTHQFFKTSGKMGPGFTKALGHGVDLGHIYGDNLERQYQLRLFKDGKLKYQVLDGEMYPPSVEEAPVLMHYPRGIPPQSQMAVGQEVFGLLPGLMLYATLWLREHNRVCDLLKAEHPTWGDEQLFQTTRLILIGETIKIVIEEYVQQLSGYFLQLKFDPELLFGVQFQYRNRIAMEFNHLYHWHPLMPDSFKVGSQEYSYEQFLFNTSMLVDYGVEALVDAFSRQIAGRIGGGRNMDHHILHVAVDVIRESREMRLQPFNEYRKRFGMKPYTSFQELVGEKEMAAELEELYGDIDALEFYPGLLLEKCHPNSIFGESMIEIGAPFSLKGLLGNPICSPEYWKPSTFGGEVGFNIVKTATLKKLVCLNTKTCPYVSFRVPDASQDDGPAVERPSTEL

One may read the IC50 as the concentration that gives 50% inhibition. `OC(CCCN1CCCCC1)(c1ccccc1)c1ccccc1` [DIPHENIDOL]: the IC50 entry (on Thromboxane-A synthase (platelet); in experiment [1] (platelet); against Glycine receptor; in experiment [2]; at Cathepsin G; in experiment [3]) was “Not Active” in each case. In experiment [4], the IC50 result is reported as “Not Active”.
Regarding `CC(=O)O[C@H]1C(=O)[C@@]2(C)[C@H]([C@H](OC(=O)c3ccccc3)[C@]3(O)C[C@H](OC(=O)[C@H](O)[C@@H](NC(=O)c4ccccc4)c4ccccc4)C(C)=C1C3(C)C)[C@]1(OC(C)=O)CO[C@@H]1C[C@@H]2O` [PACLITAXEL], the half-inhibitory concentration (IC50) result (on Thromboxane-A synthase (platelet); in experiment [1] (platelet); against Glycine receptor; in experiment [2]; against Cathepsin G; in experiment [3]) was “Not Active” in each case. In experiment [4], the IC50 result is given as “Not Active”.
For `CC1(C)S[C@@H]2[C@H](NC(=O)[C@H](N)c3ccccc3)C(=O)N2[C@H]1C(=O)O` [AMPICILLIN], the 50% inhibitory concentration (IC50) result (on Thromboxane-A synthase (platelet); in experiment [1] (platelet); against Glycine receptor; in experiment [2]; at Cathepsin G; in experiment [3]) was “Not Active” throughout. Moreover, the concentration for half-maximal inhibition (IC50) entry in experiment [4] was “Not Active”.
On to `Cn1c(=O)c2c(ncn2CC(O)CO)n(C)c1=O` (stereo not drawn) [DYPHYLLINE], for which the IC50 entry (against Thromboxane-A synthase (platelet); in experiment [1] (platelet); on Glycine receptor; in experiment [2]; against Cathepsin G; in experiment [3]) was “Not Active” each time. The IC50 entry in experiment [4] is “Not Active”.
Take `CN(C)[C@@H]1C(O)=C(C(N)=O)C(=O)[C@@]2(O)C(O)=C3C(=O)c4c(O)ccc(Cl)c4[C@@](C)(O)[C@H]3C[C@@H]12` [CHLORTETRACYCLINE]: the IC50 entry (against Thromboxane-A synthase (platelet); in experiment [1] (platelet); on Glycine receptor; in experiment [2]; at Cathepsin G; in experiment [3]) was “Not Active” throughout. In experiment [4], the IC50 entry is reported as “Not Active”.
Take `Cn1c(=O)c2[nH]cnc2n(C)c1=O.Cn1c(=O)c2[nH]cnc2n(C)c1=O.NCCN` [AMINOPHYLLINE]: the IC50 result (on Thromboxane-A synthase (platelet); in experiment [1] (platelet); on Glycine receptor; in experiment [2]; at Cathepsin G; in experiment [3]) was “Not Active” in each case. In addition, in experiment [4], the IC50 entry is on record as “Not Active”.
For the compound `C[C@H]1O[C@@H](n2cc(F)c(=O)[nH]c2=O)[C@H](O)[C@@H]1O` [DOXIFLURIDINE], the IC50 entry (at Thromboxane-A synthase (platelet); in experiment [1] (platelet); on Glycine receptor; in experiment [2]; at Cathepsin G; in experiment [3]) was “Not Active” each time. In addition, the IC50 entry in experiment [4] is “Not Active”.
As to `CC(C(=O)O)c1ccc2oc(-c3ccc(Cl)cc3)nc2c1` (stereo not drawn) [BENOXAPROFEN], the IC50 entry (against Thromboxane-A synthase (platelet); in experiment [1] (platelet); against Glycine receptor; in experiment [2]; at Cathepsin G; in experiment [3]) was “Not Active” in each case. In addition, the IC50 result in experiment [4] is “Not Active”.
Take `Oc1c(Cl)cc(Cl)c(Cl)c1Cc1c(O)c(Cl)cc(Cl)c1Cl` [HEXACHLOROPHENE]: the IC50 on Thromboxane-A synthase (read-out: IC50) is 3090 nM; in experiment [1] (platelet) it was “Not Active”; against Glycine receptor it was “Not Active”; in experiment [2], “Not Active”; on Cathepsin G, “Not Active”; in experiment [3] it was “Not Active”. Besides, the 50% inhibitory concentration (IC50) entry in experiment [4] is reported as “Not Active”.
As to `C#C[C@]1(OC(C)=O)CC[C@H]2[C@@H]3CCC4=C[C@@H](OC(C)=O)CC[C@@H]4[C@H]3CC[C@@]21C` [ETHYNODIOL DIACETATE], the IC50 result (against Thromboxane-A synthase (platelet); in experiment [1] (platelet); against Glycine receptor; in experiment [2]; at Cathepsin G; in experiment [3]) was “Not Active” each time. Further, the IC50 entry in experiment [4] is reported as “Not Active”.
With `CCC(=O)O[C@]1(C(=O)CCl)[C@@H](C)C[C@H]2[C@@H]3CCC4=CC(=O)C=C[C@]4(C)[C@@]3(F)[C@@H](O)C[C@@]21C` [CLOBETASOL PROPIONATE], the IC50 result (on Thromboxane-A synthase (platelet); in experiment [1] (platelet); against Glycine receptor; in experiment [2]; on Cathepsin G; in experiment [3]) was “Not Active” in each case. In addition, the IC50 entry in experiment [4] was “Not Active”.
A word on the Ki: it is a measure of affinity in units of concentration, obtained from inhibition or displacement. In the case of `C[C@@H](CO)NC(=O)[C@@H]1C=C2c3cccc4[nH]cc(c34)C[C@H]2N(C)C1` [ERGONOVINE], the IC50 result (against Thromboxane-A synthase (platelet); in experiment [1] (platelet); against Glycine receptor; in experiment [2]; on Cathepsin G; in experiment [3]) was “Not Active” throughout. Further, the IC50 in experiment [4] (read-out: IC50) is 2.85 nM. Further, the Ki in experiment [4] (read-out: Ki) is 1.29 nM.
Regarding `Nc1ccc2c3c(cccc13)C(=O)NC2=O`, the IC50 entry (on Thromboxane-A synthase (platelet); in experiment [1] (platelet); against Glycine receptor; in experiment [2]; on Cathepsin G; in experiment [3]) was “Not Active” each time. Besides, the IC50 entry in experiment [4] is reported as “Not Active”.
Take `CCN(CC)CCOCCC1=CCC2CC1C2(C)C` (stereo not drawn) [MYRTECAINE]: the IC50 entry (against Thromboxane-A synthase (platelet); in experiment [1] (platelet); at Glycine receptor; in experiment [2]; against Cathepsin G; in experiment [3]) was “Not Active” throughout. Moreover, the IC50 entry in experiment [4] is reported as “Not Active”.
Take `CC(C)=CCC/C(C)=C/CO` [GERANIOL]: the IC50 result (against Thromboxane-A synthase (platelet); in experiment [1] (platelet); against Glycine receptor; in experiment [2]; on Cathepsin G; in experiment [3]) was “Not Active” throughout. The IC50 result in experiment [4] is recorded as “Not Active”.
Consider `CCCOc1ccc(C(=O)OCCN(CC)CC)cc1N` [PROPARACAINE], for which the IC50 result (on Thromboxane-A synthase (platelet); in experiment [1] (platelet); on Glycine receptor; in experiment [2]; against Cathepsin G; in experiment [3]) was “Not Active” in each case. In addition, the IC50 entry in experiment [4] is “Not Active”.
Consider `CN1[C@@H]2CC[C@H]1C[C@@H](OC(=O)C(CO)c1ccccc1)C2` (stereo partly drawn) [ATROPINE], for which the IC50 entry (at Thromboxane-A synthase (platelet); in experiment [1] (platelet); at Glycine receptor; in experiment [2]; at Cathepsin G; in experiment [3]) was “Not Active” each time. Also, the IC50 result in experiment [4] is on record as “Not Active”.
In the case of `C#CC1(O)CC[C@H]2[C@@H]3CCC4=CC(=O)CC[C@@H]4[C@H]3CC[C@@]21CC` (stereo partly drawn) [NORGESTREL], the half-maximal inhibitory concentration (IC50) entry (against Thromboxane-A synthase (platelet); in experiment [1] (platelet); at Glycine receptor; in experiment [2]; against Cathepsin G; in experiment [3]) was “Not Active” throughout. For the same compound, the concentration for half-maximal inhibition (IC50) entry in experiment [4] is “Not Active”.
As for `CCCN(CCC)S(=O)(=O)c1ccc(C(=O)O)cc1` [PROBENECID], the IC50 result (against Thromboxane-A synthase (platelet); in experiment [1] (platelet); against Glycine receptor; in experiment [2]; against Cathepsin G; in experiment [3]) was “Not Active” in each case. Further, the concentration for half-maximal inhibition (IC50) result in experiment [4] is recorded as “Not Active”.
In the case of `O=C1CN=C(c2ccccc2Cl)c2cc([N+](=O)[O-])ccc2N1` [CLONAZEPAM], the IC50 result (against Thromboxane-A synthase (platelet); in experiment [1] (platelet); against Glycine receptor; in experiment [2]; against Cathepsin G; in experiment [3]) was “Not Active” in each case. Moreover, in experiment [4], the IC50 result is reported as “Not Active”.
Take `CC(C(=O)O)c1cccc(Oc2ccccc2)c1` (stereo not drawn) [FENOPROFEN]: the IC50 result at Thromboxane-A synthase (platelet) is “Not Active”; in experiment [1] (read-out: IC50), 145 nM; at Glycine receptor it was “Not Active”; in experiment [2], “Not Active”; at Cathepsin G, “Not Active”; in experiment [3] it was “Not Active”. For the same compound, the IC50 result in experiment [4] is reported as “Not Active”.
